These results are taken from patent US20160243254A1, “Theranostic Nanoprobes for Overcoming Cancer Multidrug Resistance and Methods” (Massachusetts Institute of Technology, priority 2015, published 2016).

Molecules are shown by their SMILES.

The test system of assay [1] is resistant MDA-MB-231 mammary fat pad tumors. Description: Tumor growth in orthotopic triple-negative breast cancer mice model after hydrogel implantation. It is filed as in vivo, SCID mice. Conditions: day 14 post treatment. An excerpt: In order to evaluate the efficiency of the dark-gold nanobeacon probes in sensing and in overcoming MDR in vivo, an orthotopic breast cancer mice model was developed by injecting resistant MDA-MD-231 cells to the mammary fat pad of female SCID hairless congenic mice. Efficacious and local delivery of the dark-gold nanobeacon probes was achieved by the implantation of a hydrogel disk on top of the triple-negative breast tumors. The hydrogel scaffold comprising polyamidoamine (PAMAM G5) dendrimer cross-linked with dextran aldehyde provided enhanced stability of the embedded nanoparticles.
Tumors in the mammary fat pad were induced in female SCID hairless congenic mice by injection of 5×10^6 resistant MDA-MB-231 cells stably expressing firefly luciferase, suspended in 50 μL of HBBS (Lonza, GA, USA) solution. For determination of tumor growth, individual tumors were measured using caliper, and tumor volume was calculated by Tumor volume (mm^3)=width×(length^2)/2. Treatments began when tumor volume reached about 100 mm^3. […]
In vivo imaging was used to track simultaneously tumor inhibition as measured by luciferase expression, nanobeacon probes before and after hybridization to the target and hydrogel stability monitored by fluorescence emission over a period of 14 days following hydrogel implantation.

Assay [2] relates to resistant MDA-MB-231 cells. Description: MTT cell viability assay. Format: cell-based. Conditions: 5-FU resistant MDA-MB-231 cells compared to parental cells. As for the experimental part:
Briefly, a standard MTT [3-(4,5-dimethylthiazol-2-yl)-2,5-diphenyltetrazoliumbromide] reduction assay was performed to determine the resistance status of the cells and the cytotoxicity of the gold nanobeacons.
Cells were seeded at a density of 1×10^5 cells per well in 24-well culture plates in complete DMEM (500 μL) with serum. After 24 hours of exposure, the medium was removed and the cells were washed twice with sterile PBS and 300 μL of fresh medium with serum was added. Then 16.7 μL of sterile MTT stock solution (5 mg/mL in PBS) was added to each well.
After incubation for an additional 2 hours, the medium was removed and the formazan crystals were resuspended in 300 μL of dimethyl sulfoxide (Sigma-Aldrich, USA). The solution was mixed and its absorbance was measured at 540 nm as a working wavelength and 630 nm as reference using a microplate reader (Varioskan Flash Multimode Reader, Thermo Scientific, MA, USA). The cell viability was normalized to that of cells cultured in the culture medium with PBS treatment.
In order to corroborate confocal and flow cytometry data and overcome 5-FU resistance, resistant MDA-MB-231 cells were incubated with increasing amounts of dark-gold nanobeacons with and without 5-FU, and evaluated by the imaging system IVIS®.
In general terms: Tetrazolium assays rely on reduction of a dye to a coloured formazan, in cell work by metabolically active cells.

On to `O=c1[nH]cc(F)c(=O)[nH]1` [5-FU, 5-fluorouracil], for which, in assay [1], the “effect on tumor (in words)” value is “no effect”. In addition, the “cell death after continuous exposure to drug” value in assay [2] was “absence of cell death”.
